Laboratory results from publication PMC7579840 (Journal of medicinal chemistry, 2019).
Read-outs that look alike come from different tables or passages of the source.

How the values were obtained:
panel of 54 kinases [1] = conditions: overall selectivity; cited from earlier work
HeLa pEGFP-CK2α cells = test: Subcellular localization of EGFP-CK2α, cell imaging; format: cell-based; conditions: 12 h
CK2α = CK2α (Homo sapiens, UniProt P68400); conditions: previous hit compounds included for comparison; cited from earlier work
Sequence of CK2α (P68400 whole entry): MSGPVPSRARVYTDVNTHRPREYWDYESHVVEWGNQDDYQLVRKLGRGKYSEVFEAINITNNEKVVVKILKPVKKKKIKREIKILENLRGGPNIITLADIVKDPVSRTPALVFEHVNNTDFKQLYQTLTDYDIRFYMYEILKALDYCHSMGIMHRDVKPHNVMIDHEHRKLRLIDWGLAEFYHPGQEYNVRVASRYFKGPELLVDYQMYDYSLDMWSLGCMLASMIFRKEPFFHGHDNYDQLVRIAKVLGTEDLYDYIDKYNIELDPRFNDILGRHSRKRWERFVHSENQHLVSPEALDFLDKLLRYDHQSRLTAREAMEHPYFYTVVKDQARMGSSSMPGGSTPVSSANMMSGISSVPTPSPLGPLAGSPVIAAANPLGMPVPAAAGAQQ

panel of 54 kinases [2] = test: Overall selectivity in kinase panel; conditions: 5 μM
Dyrk1A = Dyrk1A (Homo sapiens, UniProt Q13627); test: Kinase selectivity panel; conditions: 5 μM 27
[3] = biological target: CK2α2β2 (peptide substrate) (Homo sapiens, UniProt P68400); test: Radiometric kinase assay with CK2α2β2, peptide substrate; format: biochemical; conditions: peptide 29 and peptide M substrates (Figure 2B)
Sequence of CK2α2β2 (peptide substrate) (P68400 whole entry): as above
Sequence of CK2α2β2 (peptide substrate) (P67870 whole entry partner): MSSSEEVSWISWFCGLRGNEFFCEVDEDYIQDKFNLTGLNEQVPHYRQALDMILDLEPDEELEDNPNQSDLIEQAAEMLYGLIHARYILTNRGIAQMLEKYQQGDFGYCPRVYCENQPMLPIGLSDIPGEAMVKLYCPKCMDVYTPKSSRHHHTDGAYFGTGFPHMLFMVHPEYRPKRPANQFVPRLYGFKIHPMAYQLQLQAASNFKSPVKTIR

human CK2α1−335 = biological target: T1, human CK2α1−335 (Homo sapiens, UniProt P68400); test: Isothermal titration calorimetry; format: binding; conditions: ITC
T1 sequence (P68400 1-335): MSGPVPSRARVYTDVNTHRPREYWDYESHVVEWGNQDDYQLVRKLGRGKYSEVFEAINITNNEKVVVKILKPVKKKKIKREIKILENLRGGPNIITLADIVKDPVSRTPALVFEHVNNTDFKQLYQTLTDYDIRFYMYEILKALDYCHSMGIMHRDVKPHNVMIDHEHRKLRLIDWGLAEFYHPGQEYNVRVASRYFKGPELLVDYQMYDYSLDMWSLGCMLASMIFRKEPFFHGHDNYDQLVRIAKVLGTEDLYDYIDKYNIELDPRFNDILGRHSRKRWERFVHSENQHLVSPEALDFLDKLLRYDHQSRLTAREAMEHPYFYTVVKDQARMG

In the case of `O=C(O)c1ccc2c(c1)nc(Nc1cccc(Cl)c1)c1ccncc12` [CX-4945, 5-(3-chlorophenylamino)benzo[c][2,6]naphthyridine-8-carboxylic acid, reference compound], the Gini coefficient (panel of 54 kinases [1]) is listed as 0.67 and the “subcellular localization of EGFP-CK2α” value (HeLa pEGFP-CK2α cells; 8 μM) is listed as “significant translocation of EGFP-CK2α from the nucleoli to the nuclear matrix and the cytoplasm compartments”.
In the case of `O=C(O)c1cccc(Nc2nc(-c3cccc([N+](=O)[O-])c3)cs2)c1` [compound 1, 3-((4-(3-nitrophenyl)thiazol-2-yl)amino)benzoic acid], the IC50 (CK2α) is given as 30 µM.
With `O=C(O)c1ccc(Nc2nc(-c3ccc4ccccc4c3)cs2)cc1O` [compound 27, 2-Hydroxy-4-((4-(naphthalen-2-yl)thiazol-2-yl)amino)benzoic acid] the Gini coefficient (panel of 54 kinases [2]) was 0.78, the “inhibition of Dyrk1A” value (Dyrk1A) was “only weakly inhibited” and the “subcellular localization of EGFP-CK2α” value (HeLa pEGFP-CK2α cells; 15 μM) was “nucleolar localization pattern of EGFP-CK2α was mostly retained”. For the same molecule, the “inhibition of holoenzyme complex compared with CK2α” value [3] was “same potency” and the TΔS (human CK2α1−335) was 2.53 ± 0.29 kcal/mol.
